Data on 26 molecules can be found in ChEMBL document CHEMBL1144044, “Synthesis and biological activity of quinolinone and dihydroquinolinone p38 MAP kinase inhibitors” (Bioorg Med Chem Lett, 2008).

Experiment [1] concerns the target T1, Mitogen-activated protein kinase 14 (Homo sapiens, UniProt Q16539). In words: Inhibition of p38-alpha at 100 nM.
Experiment [2] deals with T1, Mitogen-activated protein kinase 14. In words: Inhibition of p38alpha.
For experiment [3] the target is unchanged. Description: Inhibition of p38-alpha by whole blood assay.
Experiment [4] shares this target. Description: Inhibition of p38-alpha at 1000 nM.
Experiment [5] has the same target. In words: Inhibition of p38-alpha at 10 uM by whole blood assay.
Experiment [6] has the same target. In words: Inhibition of p38-alpha at 1250 nM.

T1 sequence (Q16539 whole entry): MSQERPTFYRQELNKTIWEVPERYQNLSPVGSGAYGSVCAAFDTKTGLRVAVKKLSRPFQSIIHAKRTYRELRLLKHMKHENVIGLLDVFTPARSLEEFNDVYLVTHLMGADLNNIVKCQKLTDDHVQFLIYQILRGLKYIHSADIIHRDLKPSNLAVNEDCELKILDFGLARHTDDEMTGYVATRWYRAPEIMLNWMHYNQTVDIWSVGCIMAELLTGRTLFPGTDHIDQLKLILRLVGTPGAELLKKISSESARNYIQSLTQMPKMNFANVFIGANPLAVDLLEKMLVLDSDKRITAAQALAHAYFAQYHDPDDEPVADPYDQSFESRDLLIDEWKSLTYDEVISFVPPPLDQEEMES

On to `COc1cc(-c2ccccc2Cl)c2cc(OC)c(=O)n(-c3c(Cl)cccc3Cl)c2c1`, for which the inhibition in experiment [1] came out at 29%.
Consider `NC1(C(=O)NCCOc2cc(-c3ccccc3Cl)c3ccc(=O)n(-c4c(Cl)cccc4Cl)c3c2)CC1`, for which the IC50 in experiment [2] (read-out: IC50) was 1.5 nM; in experiment [3], 1010 nM.
For the molecule `NCC(=O)NCCOc1cc(-c2ccccc2Cl)c2ccc(=O)n(-c3c(Cl)cccc3Cl)c2c1`, the values for the half-inhibitory concentration (IC50) in experiment [2] (read-out: IC50) and in experiment [3] were 0.3 nM and 80 nM, respectively.
With `O=C(NCCOc1cc(-c2ccccc2Cl)c2ccc(=O)n(-c3c(Cl)cccc3Cl)c2c1)[C@H]1CCCN1`, the IC50 is 0.9 nM in experiment [2] (read-out: IC50) and 73 nM in experiment [3].
The corresponding values for `O=C(NCCOc1cc(-c2ccccc2Cl)c2ccc(=O)n(-c3c(Cl)cccc3Cl)c2c1)[C@@H]1CCCN1` are 0.75 nM and 87 nM.
As to `O=c1ccc2c(-c3ccccc3Cl)cc(O)cc2n1-c1c(Cl)cccc1Cl`, the IC50 in experiment [2] (read-out: IC50) is 0.7 nM.
Regarding `O=c1c(O)cc2c(-c3ccccc3Cl)cc(O)cc2n1-c1c(Cl)cccc1Cl`, the IC50 in experiment [2] (read-out: IC50) turned out to be 5 nM.
As for `NC(CO)C(=O)NCCOc1cc(-c2ccccc2Cl)c2ccc(=O)n(-c3c(Cl)cccc3Cl)c2c1` (stereo unspecified), the IC50 is 0.5 nM in experiment [2] (read-out: IC50) and 200 nM in experiment [3].
On to `O=C1C(O)Cc2c(-c3ccccc3Cl)cccc2N1c1c(Cl)cccc1Cl` (stereo unspecified), for which, in experiment [2] (read-out: IC50), the IC50 turned out to be 27.5 nM.
Still for that read-out and setting: the figure for `COc1cc(-c2ccccc2Cl)c2cc(O)c(=O)n(-c3c(Cl)cccc3Cl)c2c1` is 28 nM.
Regarding `O=c1ccc2c(-c3ccncc3)cccc2n1-c1c(Cl)cccc1Cl`, the inhibition in experiment [4] came out at 58%.
For the molecule `CC(C)(N)C(=O)NCCOc1cc(-c2ccccc2Cl)c2ccc(=O)n(-c3c(Cl)cccc3Cl)c2c1`, the IC50 is 0.12 nM in experiment [2] (read-out: IC50) and 28 nM in experiment [3].
As for `O=C1C(O)Cc2c(-c3ccccc3Cl)cc(O)cc2N1c1c(Cl)cccc1Cl` (stereo unspecified), the IC50 in experiment [2] (read-out: IC50) stood at 4 nM.
As to `NC1Cc2c(-c3ccccc3Cl)cccc2N(c2c(Cl)cccc2Cl)C1=O` (stereo unspecified), the IC50 entry in experiment [2] is “Not Active”.
For the molecule `O=c1ccc2c(-c3ccccc3Cl)cccc2n1-c1c(Cl)cccc1Cl`, the IC50 in experiment [2] (read-out: IC50) was found to be 6 nM.
For `O=c1ccc2c(-c3cccnc3)cccc2n1-c1c(Cl)cccc1Cl`, the IC50 in experiment [2] (read-out: IC50) came out at 460 nM.
For the molecule `COC1Cc2c(-c3ccccc3Cl)cccc2N(c2c(Cl)cccc2Cl)C1=O` (stereo unspecified), the IC50 result in experiment [2] is given as “Not Active”.
On to `COc1cc(-c2ccccc2Cl)c2ccc(=O)n(-c3c(Cl)cccc3Cl)c2c1`, for which, in experiment [5], the inhibition was 75%. Further, in experiment [2] (read-out: IC50), the IC50 amounted to 1.5 nM.
In the case of `NCCC(=O)NCCOc1cc(-c2ccccc2Cl)c2ccc(=O)n(-c3c(Cl)cccc3Cl)c2c1`, the results for the IC50 in experiment [2] (read-out: IC50) and in experiment [3] were 0.57 nM and 130 nM, respectively.
`O=c1ccc2c(-c3ccccn3)cccc2n1-c1c(Cl)cccc1Cl`: the IC50 in experiment [2] (read-out: IC50) turned out to be 350 nM.
On the same count and under the same terms, the value for `COc1cc(-c2ccccc2Cl)c2c(c1)N(c1c(Cl)cccc1Cl)C(=O)C(O)C2` (stereo unspecified) was 9 nM; that for `O=c1ccc2c(-c3ccccc3)cccc2n1-c1c(Cl)cccc1Cl` was 13.4 nM.
With `C[C@@H](N)C(=O)NCCOc1cc(-c2ccccc2Cl)c2ccc(=O)n(-c3c(Cl)cccc3Cl)c2c1`, the IC50 in experiment [2] (read-out: IC50) amounted to 0.2 nM; in experiment [3] it was 47 nM.
Take `[N-]=[N+]=NC1Cc2c(-c3ccccc3Cl)cccc2N(c2c(Cl)cccc2Cl)C1=O` (stereo unspecified): the inhibition in experiment [1] was found to be 15%.
Regarding `COc1cc(-c2ccccc2Cl)c2c(c1)N(c1c(Cl)cccc1Cl)C(=O)C(OC)C2` (stereo unspecified), in experiment [6], the inhibition was 63%.
As to `C[C@H](N)C(=O)NCCOc1cc(-c2ccccc2Cl)c2ccc(=O)n(-c3c(Cl)cccc3Cl)c2c1`, the results for the IC50 in experiment [2] (read-out: IC50) and in experiment [3] were 0.16 nM and 32 nM, respectively.
